Experimental findings from patent publication US20260199505A1, “COMBINATION THERAPY COMPRISING BISPECIFIC ANTIBODIES COMPRISING AN NRP1 BINDING DOMAIN” (Pinetree Therapeutics, Inc., priority 2022, published 2026) are described below.

The subject of assay [1] is HGF/cMET pathway. As to the kind of experiment: HGF/cMET pathway inhibition in H1975 cells. It is filed as cell-based. Particulars: data not shown. How it is done:
(§1) The H1975-HGF cell line was prepared by recombinantly engineering the H1975 cell line to express HGF by standard methods. Thus, the H1975-HGF xenograft model represents a dual activation model in which both the EGFR and cMET pathways are constitutively activated.

In assay [2] the test system is H1975-HGF. As to the kind of experiment: H1975-HGF (HGF-overexpressing) xenograft model. It is filed as in vivo, mouse. As to conditions: for tumor volume over time (FIG. 6B): second set, Osimertinib 10 mg/kg i.p. QD, Crizotinib 20 mg/kg i.p. QD, EGFR degrader 15 mg/kg i.p. QW; for tumor volume over time (FIG. 6A): first set, Panitumumab 5 mg/kg, EGFR degrader 6.87 mg/kg, Amivantamab 5.05 mg/kg i.p. BIW, Osimertinib 3 mg/kg i.p. QD. How it is done:
as §1

The test system of assay [3] is H1975. As to the kind of experiment: H1975 (Osimertinib-sensitive, parental) xenograft mouse model. It is filed as in vivo. Particulars: 3 mg/kg Osimertinib.
Description: (§2) In this example, a modified version of the H1975 xenograft model was used in which the tumor cells were engineered to overexpress NRP1.
Assay [4] deals with H1975-NRP1 OE. As to the kind of experiment: H1975-NRP1 OE (NRP1-overexpressing) xenograft model. As to conditions: 3 mg/kg Osimertinib.
Description: as §2
Assay [5] concerns H1975-OR. As to the kind of experiment: Osimertinib-resistant mouse xenograft model (H1975-OR). It is filed as in vivo. As to conditions: Osimertinib dose of 3 mg/kg. The text has this: Panitumumab is a fully humanized anti-EGFR monoclonal antibody, which binds to EGFR and block the EGFR signaling. Osimertinib is an EGFR tyrosine kinase inhibitor.

Where a name gives a salt, the structure may show the parent alone.

Consider `C[C@@H](Oc1cc(-c2cnn(C3CCNCC3)c2)cnc1N)c1c(Cl)ccc(F)c1Cl` [Crizotinib], for which, in assay [1], the cMET pathway signaling entry is “blocked cMET pathway signaling”. Further, the “tumor volume over time (FIG. 6B)” value in assay [2] is listed as “limited efficacy”.
With “Panitumumab: fully humanized anti-EGFR monoclonal antibody, which binds to EGFR and block the EGFR signaling”, the “tumor volume over time (FIG. 6A)” value in assay [2] was “exhibited resistance”.
As for `C=CC(=O)Nc1cc(Nc2nccc(-c3cn(C)c4ccccc34)n2)c(OC)cc1N(C)CCN(C)C` [Osimertinib, N-(2-{2-dimethylaminoethyl-methylamino}-4-methoxy-5-{[4-(1-methylindol-3-yl)pyrindin-2-yl]amino}phenyl)prop-2-enamide mesylate salt], in assay [3], the tumor response result is “strong and persistent tumor regression”. Also, in assay [4], the tumor response result is “significant tumor progression”. In assay [2], the “tumor volume over time (FIG. 6A)” value is given as “exhibited resistance” and the “tumor volume over time (FIG. 6B)” value is “did not prevent tumor growth over time”. In addition, in assay [5], the anti-tumor activity result is reported as “did not show anti-tumor activity”.

B1: Amivantamab: an EGFR×cMET bispecific antibody construct (antibody, chains of the INN, looked up, V domains shown)
VH: QVQLVESGGGVVQPGRSLRLSCAASGFTFSTYGMHWVRQAPGKGLEWVAVIWDDGSYKYYGDSVKGRFTISRDNSKNTLYLQMNSLRAEDTAVYYCARDGITMVRGVMKDYFDYWGQGTLVTVSS
VL: AIQLTQSPSSLSASVGDRVTITCRASQDISSALVWYQQKPGKAPKLLIYDASSLESGVPSRFSGSESGTDFTLTISSLQPEDFATYYCQQFNSYPLTFGGGTKVEIK
VH2: QVQLVQSGAEVKKPGASVKVSCETSGYTFTSYGISWVRQAPGHGLEWMGWISAYNGYTNYAQKLQGRVTMTTDTSTSTAYMELRSLRSDDTAVYYCARDLRGTNYFDYWGQGTLVTVSS
VL2: DIQMTQSPSSVSASVGDRVTITCRASQGISNWLAWFQHKPGKAPKLLIYAASSLLSGVPSRFSGSGSGTDFTLTISSLQPEDFATYYCQQANSFPITFGQGTRLEIK
For B1, in assay [1], the cMET degradation entry was “led to cMET degradation” and the cMET pathway signaling entry is “blocked cMET pathway signaling”.
